Key:
RB20 mESCs [1] = assay: Induction of mESCs to definitive endoderm (DE)-like cells by IDE2: RT-PCR of DE markers and phase contrast morphology; type: cell-based, mouse
Source text: (§1) To produce endoderm (DE) like cells, RB20 mESCs (embryonic stem cells) were maintained in adherent culture conditions on gelatin-coated dishes, prior to induction of differentiation. As depicted in FIG. 2, an overview of the mESCs maintenance and differentiation protocol. Differentiation of the cells was initiated via a reduction in concentration of KoSR; after three days, cells were induced by IDE2 for six days. In the next step, DE cells differentiated into alveolar type II-like (AT II-like) cells using seven different combinations of three inductive factors: FGF2 (F), hydrocortisone (H) and A549 conditioned medium (CM) during 9 days. The mESCs were cultured in media with reducing concentration of serum for 3 days, for example, 20%, 10% and 5% fetal bovine serum (FBS) in day one, two and three, respectively. Then, it was induced by 200 nM small inducing molecule IDE2 for 6 days. At the end of this first step, DE like cells were characterized for the expression of two DE markers, Sox17 and Foxa2.
The morphology of the said markers in the DE-like cells was assayed by phase contrast microscopy.

RB20 mESCs [2] = assay: Foxa2 protein expression in mESC-derived DE cells by flow cytometric analysis; type: cell-based, mouse; settings: mESC-derived DE cells vs mESCs
Source text: as §1
Lack of expression of Foxa2 could be seen in mESC cells.

[3] = 200 nM IDE2, day 6, compared to mESCs negative control group, P<0.05

O=C(O)CCCCCC(=O)NN=C1CCCC1 [IDE2]
expression level of Foxa2 (RT-PCR) (RB20 mESCs [1]; [3]): increased expression levels | expression level of Sox 17 (RT-PCR) (RB20 mESCs [1]; [3]): increased expression levels | cell morphology in phase contrast micrograph (RB20 mESCs [1]; day 6 of IDE2 induction): epithelial morphology characteristic of DE cells | numbers of cells that expressed DE-specific marker Foxa2 at the protein level (RB20 mESCs [2]): increase in numbers of cells

From patent US20180051257A1, “METHODS FOR GENERATING ALVEOLAR TYPE II CELLS” (priority 2016, published 2018)
